Results: patent US7960427B2, “5-hydroxyindole-3-carboxylate derivatives and uses thereof” (priority 2004, dated 2011)
≈ marks a conversion by molar mass, not a printed value. Structures can show the parent of a compound that is named as a salt. Where two headings read alike, the source gives them in different places.

Experiments:
2.2.15 cells = assay: Cytotoxicity (TC50) in 2.2.15 cells; type: cell-based
Method: (§1) All compounds were evaluated for their anti-HBV activities, namely the ability to inhibit the replication of HBV DNA and the production of HBsAg and HBeAg in HBV-infected 2.2.15 cells.
(§2) The samples were dissolved in DMSO for appropriate concentrations, and then each was diluted 3-fold with culture medium. The 2.2.15 cells were planted into 96-well culture plates. […] The culture supernatants and 2.2.15 cells were collected respectively on the 8th plant day. The secretion concentrations of HBsAg and HBeAg in the culture supernatants were measured by RIA on SPRIA Kit for Detection of HBsAg and HBeAg (Beijing North Institute of Biological Technology), and the replication of HBV DNA was measured by dot hybridization with a^32PdCTP (FuRui Biological Technology Ltd., China).

HBsAg = assay: In vitro anti-HBV activity: HBsAg production in HBV-infected 2.2.15 cells (RIA); type: cell-based, Hepatitis B virus (HBV); settings: for IC50: Hepatitis B virus, read-out: HBsAg IC50; for HBsAg SI: selectivity index
Method: as §1, §2

[1] = system: influenza A virus, strain A/jifang/90-15; assay: microbe, parasite or virus in culture; type: cell-based; settings: for IC50: Influenza strain A/jifang/90-15, MDCK cells, CPE, Reed-Muench; for SI: Influenza strain A/jifang/90-15
[2] = system: Madin-Darby canine kidney (MDCK) cells
HBV DNA = assay: In vitro anti-HBV activity: replication of HBV DNA in 2.2.15 cells (dot hybridization); type: cell-based, Hepatitis B virus (HBV); settings: for IC50: Hepatitis B virus, read-out: DNA replication IC50; for DNA replication SI: selectivity index
Method: as §1, §2

HIV-1 protease = biological target: T1, HIV-1 protease (Human immunodeficiency virus type 1 group M subtype B, UniProt P04585); assay: Anti-HIV-1 protease activity (fluorescence labeled substrate); type: biochemical; settings: for inhibition ratio at 0.5 ug/ml: sample concentration 0.5 ug/ml; for inhibition ratio at 2.0 ug/ml: sample concentration 2.0 ug/ml; for inhibition ratio at 10 ug/ml: sample concentration 10 ug/ml; for inhibition ratio at 50 ug/ml: sample concentration 50 ug/ml; for inhibition ratio at 250 ug/ml: sample concentration 250 ug/ml
T1 construct: The genetically engineered target enzyme (HIV-1 protease, preserved at −85° C.)
Method: HIV-1 protease can cut the fluorescence labeled substrate under optimal condition and reaction system, so the activity of enzyme is determined by the fluorescence in the product of enzymatic reaction. The samples are added into the reaction system to observe the inhibitive effect on the enzyme.
The samples and the reference drug Indinavir ([…].) were dissolved in DMSO or redistilled water for appropriate concentration. Each was diluted 5-fold and then added into the buffer containing fluorescence labeled substrate (MP Co.). The genetically engineered target enzyme (HIV-1 protease, preserved at −85° C.) was added to the buffer and incubated under the optimal reaction condition. The fluorescence was determined by FLUO star Galaxy fluorometer.

[3] = Influenza A virus, read-out: IC50

Row | Compound | TC50 (2.2.15 cells) | IC50 (HBsAg) | HBsAg SI (HBsAg) | IC50 (HBV DNA) | DNA replication SI (HBV DNA) | other results
1 | CCOC(=O)c1c(CSc2nc3ccccc3[nH]2)n(C)c2cc(Br)c(O)c(Cn3ccnc3)c12.Cl [Example 94, Ethyl 6-bromo-5-hydroxy-4-[(1-imidazolyl)methyl]-1-methyl-2-[(benzo[d]imidazol-2-yl)thiomethyl]-1H-indole-3-carboxylate hydrochloride] | 53.42 µg/mL | 7.37 µg/mL | 7.25 | – | – | –
2 | CCOC(=O)c1c(CSc2nc3ccc(OC)cc3[nH]2)n(C)c2cc(Br)c(O)c(CN3CCOCC3)c12 [Example 25, Ethyl 6-bromo-5-hydroxy-1-methyl-4-(morpholinomethyl)-2-[(5-methoxybenzo[d]imidazol-2-yl)thiomethyl]-1H-indole-3-carboxylate] | – | – | – | – | – | IC50 [1, 3]: 22.1 µg/mL (≈ 37.5 µM); SI [1]: 5.66; TC50 [2]: 125.0 µg/mL (≈ 212 µM)
3 | CCOC(=O)c1c(CSCc2ccc(F)cc2)n(C)c2cc(Br)c(O)c(Cn3ccnc3)c12 [Example 92, Ethyl 6-bromo-5-hydroxy-4-[(1-imidazolyl)methyl]-1-methyl-2-[(4-fluorobenzyl)thiomethyl]-1H-indole-3-carboxylate] | – | – | – | – | – | IC50 [1, 3]: 7.81 µg/mL (≈ 14.7 µM); SI [1]: 2.35; TC50 [2]: 18.34 µg/mL (≈ 34.4 µM)
4 | CCOC(=O)c1c(CS(=O)(=O)c2ccc(C(F)(F)F)cc2)n(C)c2cc(Br)c(O)c(CN3CCCC3)c12 [Example 82, Ethyl 6-bromo-5-hydroxy-1-methyl-4-(1-pyrrolidinylmethyl)-2-[(4-trifluoromethylphenyl)sulfonylmethyl]-1H-indole-3-carboxylate] | 14.25 µg/mL (≈ 23.6 µM) | 7.83 µg/mL (≈ 13 µM) | 1.82 | 6.1 µg/mL (≈ 10.1 µM) | 2.34 | –
5 | CCOC(=O)c1c(C[S+]([O-])Cc2ccco2)n(C)c2cc(Br)c(O)c(CN3CCCC3)c12 (stereo not drawn) [Example 71, Ethyl 6-bromo-5-hydroxy-1-methyl-4-(1-pyrrolidinylmethyl)-2-[(2-furylmethyl)sulfinylmethyl]-1H-indole-3-carboxylate] | 38.32 µg/mL (≈ 73.2 µM) | 18.4 µg/mL (≈ 35.1 µM) | 2.09 | 23.9 µg/mL (≈ 45.6 µM) | 1.60 | –
6 | CCOC(=O)c1c(C[S+]([O-])Cc2cscn2)n(C2CC2)c2cc(Br)c(O)c(CN(C)C)c12 (stereo not drawn) [Example 52, Ethyl 6-bromo-1-cyclopropyl-4-[(dimethylamino)methyl]-5-hydroxy-2-[(4-thiazolylmethyl)sulfinylmethyl]-1H-indole-3-carboxylate dihydrochloride] | 64.15 µg/mL | 4.79 µg/mL | 13.39 | 3.51 µg/mL | 18.27 | –
7 | CCOC(=O)c1c(CS(=O)(=O)c2cccc(C(F)(F)F)c2)n(C2CC2)c2cc(Br)c(O)c(CN3CCCC3)c12 [Example 83, Ethyl 6-bromo-1-cyclopropyl-5-hydroxy-4-(1-pyrrolidinylmethyl)-2-[(3-trifluoromethylphenyl)sulfonylmethyl]-1H-indole-3-carboxylate] | 35.61 µg/mL (≈ 56.6 µM) | 18.3 µg/mL (≈ 29.1 µM) | 1.94 | 6.38 µg/mL (≈ 10.1 µM) | 5.58 | –
8 | CCOC(=O)c1c(CSc2cccc(F)c2)n(C)c2cc(Br)c(O)c(Cn3ccnc3)c12 [Example 175, Ethyl 6-bromo-5-hydroxy-4-[(1-imidazolyl)methyl]-1-methyl-2-[(3-fluorophenyl)thiomethyl]-1H-indole-3-carboxylate] | 35.61 µg/mL (≈ 68.7 µM) | 2.45 µg/mL (≈ 4.73 µM) | 14.53 | 4.65 µg/mL (≈ 8.97 µM) | 7.66 | –
9 | CCOC(=O)c1c(C[S+]([O-])c2ccc(C(F)(F)F)cc2)n(C)c2cc(Br)c(O)c(Cn3ccnc3)c12 (stereo not drawn) [Example 177, Ethyl 6-bromo-5-hydroxy-4-[(1-imidazolyl)methyl]-1-methyl-2-[(4-trifluoromethylphenyl)sulfinylmethyl]-1H-indole-3-carboxylate] | 106.83 µg/mL (≈ 183 µM) | 31.5 µg/mL (≈ 53.8 µM) | 3.39 | 15.9 µg/mL (≈ 27.2 µM) | 6.72 | –
10 | CCOC(=O)c1c(C[S+]([O-])c2ccc(F)cc2)n(C)c2cc(Br)c(O)c(Cn3ccnc3)c12 (stereo not drawn) [Example 122, Ethyl 6-bromo-5-hydroxy-4-[(1-imidazolyl)methyl]-1-methyl-2-[(4-fluorophenyl)sulfinylmethyl]-1H-indole-3-carboxylate] | 48.1 µg/mL (≈ 90 µM) | 11.4 µg/mL (≈ 21.3 µM) | 4.23 | 13.6 µg/mL (≈ 25.5 µM) | 3.54 | –
11 | CCOC(=O)c1c(C[S+]([O-])c2ccc(F)cc2)n(C)c2cc(Br)c(O)c(CNC(=N)N)c12 (stereo not drawn) [Example 153, Ethyl 6-bromo-4-(guanidinylmethyl)-5-hydroxy-1-methyl-2-[(4-fluorophenyl)sulfinylmethyl]-1H-indole-3-carboxylate] | 125 µg/mL (≈ 238 µM) | 62.2 µg/mL (≈ 118 µM) | 2.01 | 29.3 µg/mL (≈ 55.8 µM) | 4.27 | IC50 (HIV-1 protease): 133 µM; inhibition ratio at 0.5 ug/ml (HIV-1 protease): 7.2; inhibition ratio at 2.0 ug/ml (HIV-1 protease): 14.7; inhibition ratio at 10 ug/ml (HIV-1 protease): 11.2; inhibition ratio at 50 ug/ml (HIV-1 protease): 24.1; inhibition ratio at 250 ug/ml (HIV-1 protease): 75.3
12 | CCOC(=O)c1c(CS(=O)(=O)c2cccc(OC)c2)n(C)c2cc(Br)c(O)c(CN(C)C)c12 [Example 55, Ethyl 6-bromo-4-[(dimethylamino)methyl]-5-hydroxy-1-methyl-2-[(3-methoxyphenyl)sulfonylmethyl]-1H-indole-3-carboxylate] | 21.56 µg/mL (≈ 40 µM) | – | – | 2.2 µg/mL (≈ 4.08 µM) | 9.7 | IC50 (HIV-1 protease): 49 µM; inhibition ratio at 0.5 ug/ml (HIV-1 protease): 2.1; inhibition ratio at 2.0 ug/ml (HIV-1 protease): 6.7; inhibition ratio at 10 ug/ml (HIV-1 protease): 0.1; inhibition ratio at 50 ug/ml (HIV-1 protease): 30.5; inhibition ratio at 250 ug/ml (HIV-1 protease): 98.0
13 | CCOC(=O)c1c(C[S+]([O-])c2ccc(C(F)(F)F)cc2)n(C2CC2)c2cc(Br)c(O)c(CN(C)C)c12 (stereo not drawn) [Example 79, Ethyl 6-bromo-1-cyclopropyl-4-[(dimethylamino)methyl]-5-hydroxy-2-[(4-trifluoromethylphenyl)sulfinylmethyl]-1H-indole-3-carboxylate] | 17.12 µg/mL (≈ 29.1 µM) | 6.3 µg/mL (≈ 10.7 µM) | 2.72 | 4.47 µg/mL (≈ 7.61 µM) | 3.83 | –
14 | CCOC(=O)c1c(CSc2nc3ccccc3[nH]2)n(C)c2cc(Br)c(O)c(Cn3ccnc3C)c12.Cl [Example 181, Ethyl 6-bromo-5-hydroxy-1-methyl-4-[(2-methyl-1-imidazolyl)methyl]-2-[(benzo[d]imidazol-2-yl)thiomethyl]-1H-indole-3-carboxylate hydrochloride] | 21.38 µg/mL | 1.55 µg/mL | 13.79 | – | – | –
15 | NC(=O)c1ncn([C@@H]2O[C@H](CO)[C@@H](O)[C@H]2O)n1 [Ribovirin, reference compound] | – | – | – | – | – | IC50 [1]: >33.81 µg/mL
16 | CCOC(=O)c1c(CSc2ccc(F)cc2)n(C)c2cc(Br)c(O)c(CN3CCN(C)CC3)c12 [Example 17, Ethyl 6-bromo-5-hydroxy-1-methyl-4-[(4-methyl-1-piperazinyl)methyl]-2-[(4-fluorophenyl)thiomethyl]-1H-indole-3-carboxylate dihydrochloride] | 62.50 µg/mL | – | – | 17.8 µg/mL | 3.5 | inhibition ratio at 0.5 ug/ml (HIV-1 protease): −6.1; inhibition ratio at 2.0 ug/ml (HIV-1 protease): −8.3; inhibition ratio at 10 ug/ml (HIV-1 protease): −13.0; inhibition ratio at 50 ug/ml (HIV-1 protease): −17.3; inhibition ratio at 250 ug/ml (HIV-1 protease): 27.6
